Assay results as given in PMC9123270 (The Journal of Biological Chemistry, 2022).

Columns and labels:
Assay in all cases: Isothermal titration calorimetry
Format in all cases: binding
Conditions in all cases: SD, n = 3
AngaD7L2 = molecular target: T1, AngaD7L2 (Anopheles gambiae, UniProt A0A1S4GYJ6)
T1 sequence (A0A1S4GYJ6 19-315): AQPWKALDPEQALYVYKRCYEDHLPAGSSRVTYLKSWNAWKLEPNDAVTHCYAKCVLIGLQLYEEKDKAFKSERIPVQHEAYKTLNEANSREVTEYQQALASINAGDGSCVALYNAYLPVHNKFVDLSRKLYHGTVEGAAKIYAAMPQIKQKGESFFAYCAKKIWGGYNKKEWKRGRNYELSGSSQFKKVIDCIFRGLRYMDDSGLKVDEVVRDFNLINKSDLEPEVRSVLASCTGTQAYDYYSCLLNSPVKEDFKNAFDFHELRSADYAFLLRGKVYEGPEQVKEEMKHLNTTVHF

AngaD7L1 = molecular target: T2, AngaD7L1 (Anopheles gambiae, UniProt Q7PJ76)
T2 sequence (Q7PJ76 22-311): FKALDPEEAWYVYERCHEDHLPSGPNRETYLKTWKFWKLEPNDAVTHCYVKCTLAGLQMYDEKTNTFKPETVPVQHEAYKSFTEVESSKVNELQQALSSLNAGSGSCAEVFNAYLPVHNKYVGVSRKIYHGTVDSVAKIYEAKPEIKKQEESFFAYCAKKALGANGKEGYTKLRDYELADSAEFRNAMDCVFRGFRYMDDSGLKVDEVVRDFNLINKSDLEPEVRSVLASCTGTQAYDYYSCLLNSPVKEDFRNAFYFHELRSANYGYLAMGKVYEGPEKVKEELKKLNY

AngaD7L3 = AngaD7L3 (Anopheles gambiae, UniProt A0A1S4HE90)
AngaD7L3, sequence (A0A1S4HE90 27-354): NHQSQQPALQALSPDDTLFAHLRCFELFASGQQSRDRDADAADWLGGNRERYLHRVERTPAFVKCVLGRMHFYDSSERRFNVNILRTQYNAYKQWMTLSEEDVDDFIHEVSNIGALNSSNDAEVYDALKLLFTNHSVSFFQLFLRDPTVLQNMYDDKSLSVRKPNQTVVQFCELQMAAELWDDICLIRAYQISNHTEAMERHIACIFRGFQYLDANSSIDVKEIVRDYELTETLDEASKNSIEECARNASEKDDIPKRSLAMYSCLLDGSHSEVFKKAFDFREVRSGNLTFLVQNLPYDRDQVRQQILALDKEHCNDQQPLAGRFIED

| SMILES | Kd (AngaD7L2) [nM] | Kd (AngaD7L1) [nM] | also measured |
| --- | --- | --- | --- |
| CCCCC/C=C\C[C@@H](O)/C=C/C=C/C=C\[C@@H](O)CCCC(=O)O [LTB4, leukotriene B4] | 800 | – | – |
| CCCCC[C@H](O)/C=C/[C@@H]1[C@@H](C/C=C\CCCC(=O)O)[C@H]2CO[C@@H]1C2 [U-46619, 9,11-dideoxy-9alpha,11alpha-methanoepoxyprostaglandin F2alpha (thromboxane A2 analog)] | – | 400 | – |
| NCCc1c[nH]c2ccc(O)cc12 [Serotonin, 5-hydroxytryptamine (5-HT)] | – | – | Kd (AngaD7L3): 20 nM |
| CCCCC/C=C\C\C=C/C=C/C=C/[C@@H](SC[C@H](NC(=O)CC[C@H](N)C(=O)O)C(=O)NCC(=O)O)[C@@H](O)CCCC(=O)O [LTC4, leukotriene C4] | – | 2000 | – |
| CCCCC/C=C\C\C=C/C=C/C=C/[C@@H](SC[C@H](N)C(=O)NCC(=O)O)[C@@H](O)CCCC(=O)O [LTD4, leukotriene D4] | 1000 | – | – |
